For test [1], the target named is Kv1.3 (Mus musculus, UniProt P16390). The note with it: literature values (Kalman 1998; Pennington 2009); spread = s.e.m.; read-out: Binding affinities (IC50) Kv1.3; cited from earlier work.
Test [2] deals with T1, mKv1.3 (Mus musculus, UniProt P16390).
T1 construct: expressed in transfected cells
Nature of the test: Whole-cell patch clamp electrophysiology, Kv1.3 channel currents. The class given is cell-based. The text has this: Data are presented as mean±s.e.m.
Electrophysiological analysis—Cells were studied using the whole-cell configuration of a standard patch-clamp technique at RT. The bath solution contained (in mM): 160 NaCl, 4.5 KCl, 2 CaCl2, 1 MgCl2, 10 HEPES, pH 7.2, 300 mOsm. […] Kv currents were elicited by repeated 200 ms depolarising pulses from a holding potential of −80 mV to 40 mV, applied every 30 seconds. The Port-a-Patch patch clamp system (Nanion Technologies GmbH, Munich, Germany) and NPC-1 chips with 2-3.5 MΩ resistance were also utilised in conjunction. IC50 values of Kv blockers were calculated by fitting the Hill equation to the reduction of peak current measured at 40 mV.
Thus, both analogues have reduced affinity to K^+ channels and show a relatively low level of selectivity for Kv1.3 over Kv1.1. The implication is that neither Ser-3 nor Glu-3 was able to greatly discriminate between Pro377 in Kv1.3 and the corresponding Ala in Kv1.1.
For orientation: In patch-clamp work, channel activity is measured electrically.

T1 sequence (P16390 whole entry): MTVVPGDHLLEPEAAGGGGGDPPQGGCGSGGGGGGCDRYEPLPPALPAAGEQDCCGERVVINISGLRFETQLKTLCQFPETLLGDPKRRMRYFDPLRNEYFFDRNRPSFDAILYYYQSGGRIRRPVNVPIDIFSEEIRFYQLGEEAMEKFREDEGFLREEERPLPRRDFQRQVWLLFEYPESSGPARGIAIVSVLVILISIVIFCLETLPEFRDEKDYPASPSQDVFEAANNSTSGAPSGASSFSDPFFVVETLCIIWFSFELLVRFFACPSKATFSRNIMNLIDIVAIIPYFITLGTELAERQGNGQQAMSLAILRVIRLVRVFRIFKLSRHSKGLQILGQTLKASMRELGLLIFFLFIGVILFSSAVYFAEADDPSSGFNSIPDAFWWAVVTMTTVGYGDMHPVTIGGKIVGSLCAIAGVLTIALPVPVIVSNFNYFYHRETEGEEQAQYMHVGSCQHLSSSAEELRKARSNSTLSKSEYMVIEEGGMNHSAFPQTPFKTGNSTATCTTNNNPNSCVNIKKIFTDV
Sequence of Kv1.3 (P16390 whole entry): as above

Turning to “RSCIDTIPKSRCTAFQCKHSMKYRLSFCRKTCGTC [ShK]”, in test [1], the 50% inhibitory concentration (IC50) is 0.011 nM.

As for `CC[C@H](C)[C@@H]1NC(=O)[C@@H](NC(=O)[C@H](CO)NC(=O)[C@H](CCCNC(=N)N)NC(=O)[C@H](CO)NC(=O)[C@H](CO)NC(=O)[C@H](CCC(=O)O)NC(=O)[C@@H](N)CCC(=O)O)CSSC[C@@H](C(N)=O)NC(=O)[C@H]([C@@H](C)O)NC(=O)CNC(=O)[C@@H]2CSSC[C@@H]3NC(=O)[C@H](CCC(N)=O)NC(=O)[C@H](Cc4ccccc4)NC(=O)[C@H](C)NC(=O)[C@H]([C@@H](C)O)NC(=O)[C@H](CSSC[C@H](NC(=O)[C@H](Cc4ccccc4)NC(=O)[C@H](CO)NC(=O)[C@H](CC(C)C)NC(=O)[C@H](CCCNC(=N)N)NC(=O)[C@H](Cc4ccc(O)cc4)NC(=O)[C@H](CCCCN)NC(=O)[C@H](CCSC)NC(=O)[C@H](CO)NC(=O)[C@H](Cc4c[nH]cn4)NC(=O)[C@H](CCCCN)NC3=O)C(=O)N[C@@H](CCCNC(=N)N)C(=O)N[C@@H](CCCCN)C(=O)N[C@@H]([C@@H](C)O)C(=O)N2)NC(=O)[C@H](CCCNC(=N)N)NC(=O)[C@H](CO)NC(=O)[C@H](CCCCN)NC(=O)[C@@H]2CCCN2C(=O)[C@H]([C@@H](C)CC)NC(=O)[C@H]([C@@H](C)O)NC(=O)[C@H](CC(=O)O)NC1=O` [[EESS]ShK], the IC50 in test [2] was determined as 0.404 ± 0.058 nM. For the same compound, in test [2] (relative to [ESSS]ShK), the “higher affinity for Kv1.3 as compared to [ESSS]ShK” value was determined as 1.6 fold.

In test [2], `CC[C@H](C)[C@@H]1NC(=O)[C@@H](NC(=O)[C@H](CO)NC(=O)[C@H](CCCNC(=N)N)NC(=O)[C@H](CO)NC(=O)[C@H](CO)NC(=O)[C@H](Cc2c[nH]c3ccccc23)NC(=O)[C@@H](N)CCC(=O)O)CSSC[C@@H](C(=O)O)NC(=O)[C@H]([C@@H](C)O)NC(=O)CNC(=O)[C@@H]2CSSC[C@@H]3NC(=O)[C@H](CCC(N)=O)NC(=O)[C@H](Cc4ccccc4)NC(=O)[C@H](C)NC(=O)[C@H]([C@@H](C)O)NC(=O)[C@H](CSSC[C@H](NC(=O)[C@H](Cc4ccccc4)NC(=O)[C@H](CO)NC(=O)[C@H](CC(C)C)NC(=O)[C@H](CCCNC(=N)N)NC(=O)[C@H](Cc4ccc(O)cc4)NC(=O)[C@H](CCCCN)NC(=O)[C@H](CCSC)NC(=O)[C@H](CO)NC(=O)[C@H](Cc4c[nH]cn4)NC(=O)[C@H](CCCCN)NC3=O)C(=O)N[C@@H](CCCNC(=N)N)C(=O)N[C@@H](CCCCN)C(=O)N[C@@H]([C@@H](C)O)C(=O)N2)NC(=O)[C@H](CCCNC(=N)N)NC(=O)[C@H](CO)NC(=O)[C@H](CCCCN)NC(=O)[C@@H]2CCCN2C(=O)[C@H]([C@@H](C)CC)NC(=O)[C@H]([C@@H](C)O)NC(=O)[C@H](CC(=O)O)NC1=O` [[EWSS]ShK] gave an IC50 of 0.033 ± 0.007 nM. In addition, in test [2] (relative to ShK-192), the “higher affinity for Kv1.3 than ShK-192” value turned out to be 4 fold.

What is called IC50 is the concentration at which inhibition is half-maximal.

The values are drawn from patent US10246496B2, “Potassium channel blockers and use thereof in the treatment of autoimmune diseases” (MONASH UNIVERSITY, priority 2014, dated 2019).
